Data as given in ChEMBL document CHEMBL1275334, “5-Piperazinyl-3-sulfonylindazoles as potent and selective 5-hydroxytryptamine-6 antagonists” (J Med Chem, 2010).
Activity calls are given as the source filed them. No cut-off for these calls is given here.

Columns and labels:
[1] = Oral bioavailability in rat at 10 mg/kg; format: ADME, organism-based; conditions: in vivo
Rattus norvegicus [2] = assay: Enhancement of memory in po dosed rat assessed as minimum effective dose measured after 48 hrs delay by novel object recognition test; format: functional; conditions: read-out: MED
[3] = target: T1, 5-hydroxytryptamine receptor 6 (Homo sapiens, UniProt P50406); assay: Antagonist activity at human cloned 5HT6 receptor expressed in human HeLa cells by cyclase assay; format: functional, cell-based
[4] = Oral bioavailability in dog at 10 mg/kg; format: ADME, organism-based, Canis lupus familiaris; conditions: in vivo
Rattus norvegicus [5] = assay: Induction of glutamate release in hippocampus of rat at 10 mg/kg, po; format: functional, organism-based; set-up: dose 10 mg/kg
[6] = target: T2, 5-hydroxytryptamine receptor 1A (Homo sapiens, UniProt P08908); assay: Displacement of [3H]LSD from human cloned 5HT1A receptor expressed in human HeLa cells; format: cell-based
T2 sequence (P08908 whole entry): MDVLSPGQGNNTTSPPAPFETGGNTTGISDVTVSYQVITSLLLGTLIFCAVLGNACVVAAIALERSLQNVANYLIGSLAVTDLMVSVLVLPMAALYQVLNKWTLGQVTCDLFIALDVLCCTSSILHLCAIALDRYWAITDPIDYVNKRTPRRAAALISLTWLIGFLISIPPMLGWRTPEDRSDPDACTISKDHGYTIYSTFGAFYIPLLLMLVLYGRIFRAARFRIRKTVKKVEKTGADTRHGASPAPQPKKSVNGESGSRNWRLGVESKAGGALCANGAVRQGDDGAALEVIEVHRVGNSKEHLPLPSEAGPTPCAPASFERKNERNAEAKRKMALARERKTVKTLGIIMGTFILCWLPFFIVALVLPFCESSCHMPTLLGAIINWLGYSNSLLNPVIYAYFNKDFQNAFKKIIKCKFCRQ

[7] = Plasma protein binding in rat at 10 mg/kg, po; format: ADME, organism-based; set-up: dose 10 mg/kg, route oral; conditions: read-out: PPB (converted)
[8] = target: 5-hydroxytryptamine receptor 1B (Homo sapiens, UniProt P28222); assay: Displacement of [3H]LSD from human cloned 5HT1B receptor expressed in human HeLa cells; format: cell-based
[9] = target: T3, 5-hydroxytryptamine receptor 2C (Homo sapiens, UniProt P28335); assay: Displacement of [3H]LSD from human cloned 5HT2C receptor expressed in human HeLa cells; format: cell-based
T3 sequence (P28335 whole entry): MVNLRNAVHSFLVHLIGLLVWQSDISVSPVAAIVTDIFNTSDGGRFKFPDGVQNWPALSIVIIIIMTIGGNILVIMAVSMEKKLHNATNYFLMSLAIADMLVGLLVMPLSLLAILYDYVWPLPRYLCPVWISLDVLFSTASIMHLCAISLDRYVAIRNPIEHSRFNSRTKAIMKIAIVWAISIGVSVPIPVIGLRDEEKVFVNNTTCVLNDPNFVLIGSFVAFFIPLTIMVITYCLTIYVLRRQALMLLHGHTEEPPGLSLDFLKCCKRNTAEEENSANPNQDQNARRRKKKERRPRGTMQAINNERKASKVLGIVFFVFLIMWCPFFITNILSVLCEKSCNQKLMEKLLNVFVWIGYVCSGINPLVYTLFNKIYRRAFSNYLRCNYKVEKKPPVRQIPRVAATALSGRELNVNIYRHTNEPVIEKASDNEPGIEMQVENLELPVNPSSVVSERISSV

[10] = Solubility of the compound in water; format: physicochemical
D(2) dopamine receptor = D(2) dopamine receptor (Homo sapiens, UniProt P14416); assay: Displacement of [3H]LSD from human cloned dopamine D2 receptor expressed in human HeLa cells; format: cell-based
Rattus norvegicus [11] = assay: Induction of acetylcholine release in hippocampus of rat at 10 mg/kg, po; format: functional, organism-based; set-up: dose 10 mg/kg
[12] = target: T1, 5-hydroxytryptamine receptor 6; assay: Antagonist activity at human cloned 5HT6 receptor expressed in human HeLa cells by cyclase assay relative to control; format: functional, cell-based
[13] = target: T4, 5-hydroxytryptamine receptor 2B (Homo sapiens, UniProt P41595); assay: Agonist activity at human recombinant 5HT2B receptor expressed in CHOK1 cells at 0.0001 to 10 uM by FLIPR assay; format: functional, cell-based; conditions: CHO-K1
[14] = target: T4, 5-hydroxytryptamine receptor 2B; assay: Displacement of [3H]LSD from human cloned 5HT2B receptor expressed in human HeLa cells; format: cell-based
[15] = target: 5-hydroxytryptamine receptor 1D (Homo sapiens, UniProt P28221); assay: Displacement of [3H]LSD from human cloned 5HT1D receptor expressed in human HeLa cells; format: cell-based
[16] = Ratio of drug level in brain to plasma in dog at 10 mg/kg, po; format: ADME, organism-based, Canis lupus familiaris; set-up: dose 10 mg/kg, route oral; conditions: read-out: BPR
[17] = Ratio of drug level in brain to plasma in rat at 10 mg/kg, po; format: ADME, organism-based; set-up: dose 10 mg/kg, route oral; conditions: read-out: BPR
[18] = Protein binding in rat brain at 10 mg/kg, po; format: ADME, organism-based; set-up: dose 10 mg/kg, route oral; conditions: read-out: PPB (converted)
[19] = target: T5, Alpha-2A adrenergic receptor (Homo sapiens, UniProt P08913); assay: Displacement of [3H]LSD from human cloned alpha2A adrenergic receptor expressed in human HeLa cells; format: cell-based
T5 sequence (P08913 whole entry): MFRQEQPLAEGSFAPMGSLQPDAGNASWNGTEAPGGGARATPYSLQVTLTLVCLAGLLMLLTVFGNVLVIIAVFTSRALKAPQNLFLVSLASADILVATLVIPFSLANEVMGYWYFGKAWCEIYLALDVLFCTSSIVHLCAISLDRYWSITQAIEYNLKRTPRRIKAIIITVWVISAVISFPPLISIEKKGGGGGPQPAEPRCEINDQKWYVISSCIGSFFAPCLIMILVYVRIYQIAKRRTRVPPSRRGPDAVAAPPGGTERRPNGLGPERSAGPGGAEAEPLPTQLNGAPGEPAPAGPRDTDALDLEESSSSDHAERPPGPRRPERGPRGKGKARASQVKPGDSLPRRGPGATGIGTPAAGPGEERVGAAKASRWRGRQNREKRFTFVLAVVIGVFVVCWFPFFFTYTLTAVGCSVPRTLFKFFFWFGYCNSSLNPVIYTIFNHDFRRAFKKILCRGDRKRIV

[20] = target: 5-hydroxytryptamine receptor 7 (Homo sapiens, UniProt P34969); assay: Displacement of [3H]LSD from human cloned 5HT7 receptor expressed in human HeLa cells; format: cell-based
Rattus norvegicus [21] = assay: Enhancement of memory in po dosed rat measured after 48 hrs delay by novel object recognition test; format: functional, organism-based
Rattus norvegicus [22] = assay: Inhibition of scopolamine-induced memory deficit in po dosed rat by novel object recognition test; format: functional; conditions: read-out: MED

T4 sequence (P41595 whole entry): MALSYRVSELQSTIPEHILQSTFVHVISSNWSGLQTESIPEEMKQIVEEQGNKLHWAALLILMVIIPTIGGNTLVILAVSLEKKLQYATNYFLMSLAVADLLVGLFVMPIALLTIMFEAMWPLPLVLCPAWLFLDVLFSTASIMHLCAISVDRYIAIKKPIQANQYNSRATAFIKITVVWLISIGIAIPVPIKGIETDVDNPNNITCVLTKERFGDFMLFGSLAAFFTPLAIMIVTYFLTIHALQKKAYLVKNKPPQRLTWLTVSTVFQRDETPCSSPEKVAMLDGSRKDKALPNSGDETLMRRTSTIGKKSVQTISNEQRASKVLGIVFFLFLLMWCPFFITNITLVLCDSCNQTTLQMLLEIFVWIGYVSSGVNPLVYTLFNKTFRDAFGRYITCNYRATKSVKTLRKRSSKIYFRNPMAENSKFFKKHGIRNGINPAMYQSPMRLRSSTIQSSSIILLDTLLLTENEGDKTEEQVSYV
T1 sequence (P50406 whole entry): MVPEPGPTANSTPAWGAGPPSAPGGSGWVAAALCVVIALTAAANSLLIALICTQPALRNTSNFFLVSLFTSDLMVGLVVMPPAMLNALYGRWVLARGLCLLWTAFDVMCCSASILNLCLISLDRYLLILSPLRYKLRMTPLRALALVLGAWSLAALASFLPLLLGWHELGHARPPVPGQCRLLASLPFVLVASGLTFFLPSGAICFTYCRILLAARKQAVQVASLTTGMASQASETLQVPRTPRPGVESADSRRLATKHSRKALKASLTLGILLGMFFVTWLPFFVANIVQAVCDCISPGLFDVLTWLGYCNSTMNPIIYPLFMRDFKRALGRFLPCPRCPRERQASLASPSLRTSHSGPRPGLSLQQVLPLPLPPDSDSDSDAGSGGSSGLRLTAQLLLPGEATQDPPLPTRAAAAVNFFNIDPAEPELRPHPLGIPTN
Chain of 5-hydroxytryptamine receptor 7 (P34969 whole entry): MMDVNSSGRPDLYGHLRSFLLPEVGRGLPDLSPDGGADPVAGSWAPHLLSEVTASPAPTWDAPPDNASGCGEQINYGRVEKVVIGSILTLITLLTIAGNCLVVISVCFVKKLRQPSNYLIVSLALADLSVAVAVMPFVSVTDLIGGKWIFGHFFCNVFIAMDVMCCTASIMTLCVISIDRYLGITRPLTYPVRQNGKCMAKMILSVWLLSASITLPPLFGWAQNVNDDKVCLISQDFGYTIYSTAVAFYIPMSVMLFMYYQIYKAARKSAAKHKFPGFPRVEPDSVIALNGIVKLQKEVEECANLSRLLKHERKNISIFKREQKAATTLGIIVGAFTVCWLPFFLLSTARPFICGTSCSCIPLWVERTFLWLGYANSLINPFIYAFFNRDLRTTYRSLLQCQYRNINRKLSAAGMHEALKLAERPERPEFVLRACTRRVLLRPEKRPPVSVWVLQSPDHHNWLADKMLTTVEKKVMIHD
Chain of D(2) dopamine receptor (P14416 whole entry): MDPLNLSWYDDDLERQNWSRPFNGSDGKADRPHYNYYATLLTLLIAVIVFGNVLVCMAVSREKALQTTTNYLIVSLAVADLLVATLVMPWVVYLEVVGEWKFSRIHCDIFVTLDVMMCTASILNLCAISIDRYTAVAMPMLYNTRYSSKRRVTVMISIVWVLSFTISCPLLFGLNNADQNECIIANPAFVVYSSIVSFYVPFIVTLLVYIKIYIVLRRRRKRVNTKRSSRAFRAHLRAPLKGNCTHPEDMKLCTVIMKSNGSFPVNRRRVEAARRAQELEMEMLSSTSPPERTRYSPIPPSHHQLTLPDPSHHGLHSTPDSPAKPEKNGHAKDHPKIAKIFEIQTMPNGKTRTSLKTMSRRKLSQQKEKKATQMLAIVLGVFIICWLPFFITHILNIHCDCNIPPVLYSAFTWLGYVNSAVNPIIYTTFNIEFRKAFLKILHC
Chain of 5-hydroxytryptamine receptor 1D (P28221 whole entry): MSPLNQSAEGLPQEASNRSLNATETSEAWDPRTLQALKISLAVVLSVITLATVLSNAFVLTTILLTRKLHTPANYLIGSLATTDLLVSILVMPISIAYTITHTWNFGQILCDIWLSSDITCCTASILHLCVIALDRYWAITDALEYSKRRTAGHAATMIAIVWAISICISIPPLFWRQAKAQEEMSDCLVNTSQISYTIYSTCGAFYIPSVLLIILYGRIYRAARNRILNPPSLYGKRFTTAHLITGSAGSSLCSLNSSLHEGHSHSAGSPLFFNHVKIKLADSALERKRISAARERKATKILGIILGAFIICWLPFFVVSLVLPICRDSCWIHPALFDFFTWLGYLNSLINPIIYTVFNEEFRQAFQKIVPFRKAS
Chain of 5-hydroxytryptamine receptor 1B (P28222 whole entry): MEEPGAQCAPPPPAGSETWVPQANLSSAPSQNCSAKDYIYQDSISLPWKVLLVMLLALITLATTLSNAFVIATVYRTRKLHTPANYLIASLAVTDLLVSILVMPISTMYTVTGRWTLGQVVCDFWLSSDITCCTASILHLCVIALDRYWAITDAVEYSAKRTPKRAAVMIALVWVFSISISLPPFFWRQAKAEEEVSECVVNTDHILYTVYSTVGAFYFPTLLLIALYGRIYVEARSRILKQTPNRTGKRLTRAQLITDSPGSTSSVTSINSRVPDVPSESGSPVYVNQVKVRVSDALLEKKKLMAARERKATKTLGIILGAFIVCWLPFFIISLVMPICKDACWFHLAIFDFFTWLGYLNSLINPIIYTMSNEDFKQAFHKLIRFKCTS

- bioavailability [1]: > 20%
- IC50 [3]: 13 nM
- bioavailability [4]: > 20%
- Ki [6]: 573 nM
- fraction unbound [7]: 0.2
- Ki [8]: > 5 µM
- Ki [9]: > 5 µM
- solubility [10]: > 100 µg/mL
- Ki (D(2) dopamine receptor): > 5 µM
- Imax [12]: 100%
- Activity [13]: inactive
- Ki [14]: 236 nM
- Ki [15]: > 5 µM
- Kp [16]: < 0.2
- Kp [17]: < 0.2
- fraction unbound [18]: 0.2
- Ki [19]: > 5 µM
- Ki [20]: 1560 nM
Structure (SMILES): O=S(=O)(c1cccc2ccccc12)c1n[nH]c2ccc(N3CCNCC3)cc12
- minimal effective dose (Rattus norvegicus [2]): 3 mg/kg
- Activity (Rattus norvegicus [5]): Active
- Activity (Rattus norvegicus [11]): Active
- Activity (Rattus norvegicus [21]): Dose-dependent effect
- minimal effective dose (Rattus norvegicus [22]): 0.03 mg/kg
